Data published in the NIST ThermoML archive (doi:10.1016/j.tca.2008.09.006).

Test: xn = mol fraction of the nth substance listed
Conditions: 303.15 K, 101 kPa, Liquid; for viscosity: Capillary tube (Ostwald / Ubbelohde) method; for mass density: Vibrating tube method

CCN(CC)CC [triethylamine] + C1CCCCC1
Conditions	mass density [kg/m3]	viscosity [mPa·s]
x1 = 0.0995	761.78	0.697
x1 = 0.1947	755.57	0.614
x1 = 0.291	749.84	0.548
x1 = 0.3963	744.18	0.495
x1 = 0.4999	739.03	0.453
x1 = 0.5961	734.6	0.42
x1 = 0.6989	730.17	0.392
x1 = 0.7968	726.09	0.374
x1 = 0.8973	722.21	0.348
x1 = 1	718.45	0.33

CCCO [propan-1-ol] + CCCCN(CCCC)CCCC
x2 = 0
Conditions	mass density [kg/m3]	viscosity [mPa·s]
–	795.66	1.727

CCN(CC)CC [triethylamine] + CCCO
Conditions	mass density [kg/m3]	viscosity [mPa·s]
x1 = 0.2007	783.21	1.189
x1 = 0.295	775.99	1.007
x1 = 0.3226	773.73	0.954
x1 = 0.393	767.95	0.845
x1 = 0.4852	760.11	0.719
x1 = 0.6128	749.28	0.574
x1 = 0.7308	739.53	0.47
x1 = 0.7637	736.85	0.444
x1 = 0.8776	727.89	0.375
x1 = 1	718.45	0.33

CCCO [propan-1-ol] + CCN(CC)CC
x2 = 0
Conditions	mass density [kg/m3]	viscosity [mPa·s]
–	795.66	1.727

C1CCCCC1 [cyclohexane] + CCCCN(CCCC)CCCC
x2 = 0
Conditions	mass density [kg/m3]	viscosity [mPa·s]
–	769.16	0.819

C1CCCCC1 [cyclohexane] + CCCO
Conditions	mass density [kg/m3]	viscosity [mPa·s]
x2 = 0	769.16	0.819
x2 = 0.1021	769.52	0.832
x2 = 0.2112	770.68	0.872
x2 = 0.3122	772.37	0.922
x2 = 0.4211	774.63	0.986
x2 = 0.5151	776.9	1.053
x2 = 0.6203	779.94	1.148
x2 = 0.7208	783.15	1.264
x2 = 0.8143	786.73	1.398
x2 = 0.9079	790.83	1.555

CCCCN(CCCC)CCCC [tributylamine] + CCCO
Conditions	mass density [kg/m3]	viscosity [mPa·s]
x1 = 0.0986	791.71	1.695
x1 = 0.1991	788.31	1.66
x1 = 0.2978	785.47	1.619
x1 = 0.4984	780.18	1.514
x1 = 0.5992	777.82	1.449
x1 = 0.6031	777.75	1.445
x1 = 0.6981	775.71	1.378
x1 = 0.7989	773.78	1.302
x1 = 0.8988	771.94	1.233
x1 = 1	770.39	1.167

C1CCCCC1 [cyclohexane] + CCN(CC)CC
x2 = 0
Conditions	mass density [kg/m3]	viscosity [mPa·s]
–	769.16	0.819

CCCO [propan-1-ol] + C1CCCCC1
x1 = 1
Conditions	mass density [kg/m3]	viscosity [mPa·s]
–	795.66	1.727

CCCCN(CCCC)CCCC [tributylamine] + C1CCCCC1
Conditions	mass density [kg/m3]	viscosity [mPa·s]
x1 = 0.1023	768.32	0.848
x1 = 0.2014	768.09	0.878
x1 = 0.3008	768.17	0.914
x1 = 0.4016	768.42	0.947
x1 = 0.5002	768.78	0.985
x1 = 0.6018	769.15	1.025
x1 = 0.7021	769.57	1.058
x1 = 0.8012	769.85	1.096
x1 = 0.9024	770.12	1.13
x1 = 1	770.39	1.167
